Reference: patent US5352602A, “Isoamylase and process for producing the same” (Amano Pharmaceutical Co., Ltd., priority 1992, dated 1994)
Entries after “also recorded” stand apart in the source; their conditions may differ. Where two headings read alike, the source gives them in different places.

How the values were obtained:
[1] = test system: isoamylase of Xanthomonas maltophilia S-517; experiment: Influence of inhibitors and metal salts on isoamylase activity; type: biochemical; details: for Inhibition by Metal Salt: Table 3, isoamylase of Xanthomonas maltophilia S-517 (Invention); for Inhibition of the enzyme of the present invention: in words
Protocol: Measurements of activity of the enzyme of the present invention were made as follows in accordance with the method of Maruo-Kobayashi (see NIHON NOGEI KAISHI, Vol. 23, pp. 115-120 (1949).
A reaction system consisting of 2.0 ml of a 1.0% soluble starch (glutinous rice) solution, 0.4 ml of a 0.5M acetate buffer solution (pH=3.5), and 0.4 ml of an enzyme liquid was allowed to react at 40° C. for 30 minutes. To the reaction system was added 0.4 ml of a 0.01N iodine solution. After dilution with water to 10 ml, the absorbance at 610 nm was measured. The enzyme activity on an absorbance increase of 0.1 within 1 hour was taken as 10 units.

[2] = test system: isoamylase of Pseudomonas origin; details: cited from earlier work; for Inhibition by Metal Salt: Table 3, isoamylase of Pseudomonas origin; for Inhibition of the enzyme derived from Pseudomonas: in words
[3] = test system: isoamylase of Xanthomonas maltophilia S-517; experiment: Substrate specificity of the purified isoamylase; type: biochemical; details: for Substrate specificity: in words; for Initial Velocity: relative, glycogen = 100; for V: velocity of the purified isoamylase on the named substrate

Compound: O=[N+]([O-])c1ccc(O)c(CBr)c1 [2-Hydroxy-5-nitrobenzyl bromide]
- Percent Inhibition ([1]; inhibitor concentration 0.1 mM): 14.3%

Compound: CC(=O)I [Acetyl monoiodide]
- Percent Inhibition ([1]; inhibitor concentration 0.1 mM): 10.1%
- Percent Inhibition ([1]; inhibitor concentration 5 mM): 34.6%

Compound: O=[N+]([O-])[O-].[Ag+] [AgNO3]
- Percent Inhibition ([1]; inhibitor concentration 1 mM): 98.0%

Compound: [Cl][Cu][Cl] [CuCl2]
- Percent Inhibition ([1]; inhibitor concentration 1 mM): 20.7%

Compound: O=C(O)CN(CCN(CC(=O)O)CC(=O)O)CC(=O)O [EDTA]
- Percent Inhibition ([1]; inhibitor concentration 5 mM): 0%

Compound: O=C1O[C@H](CO)[C@@H](O)[C@H](O)[C@H]1O [Glucono-1,5-lactone]
- Percent Inhibition ([1]; inhibitor concentration 10 mM): 8.0%

Compound: [Cl][Hg][Cl] [HgCl2]
- Percent Inhibition ([1]; inhibitor concentration 1 mM): 42.2%

Compound: [Cl-].[Cl-].[Mg+2] [MgCl2]
- Inhibition by Metal Salt [1]: 26.3%
- Inhibition of the enzyme of the present invention [1]: inhibited
- Percent Inhibition ([1]; inhibitor concentration 1 mM): 26.3%
- Inhibition by Metal Salt [2]: 0%
- Inhibition of the enzyme derived from Pseudomonas [2]: not inhibited

Compound: O=C1CCC(=O)N1Br [N-Bromosuccinimide]
- Percent Inhibition ([1]; inhibitor concentration 0.01 mM): 100.0%

Compound: [Cl-].[Na+] [NaCl]
- Percent Inhibition [1]: 0%

Compound: [F-].[Na+] [NaF]
- Inhibition by Metal Salt [1]: 0%
- Inhibition of the enzyme of the present invention [1]: not inhibited
- Percent Inhibition ([1]; inhibitor concentration 1 mM): 0%
- Inhibition by Metal Salt [2]: 19%
- Inhibition of the enzyme derived from Pseudomonas [2]: inhibited

Compound: O=C(O)c1cc[c]([Hg][Cl])cc1 [PCMB]
- Inhibition by Metal Salt [1]: 0%
- Inhibition of the enzyme of the present invention [1]: not inhibited
- Percent Inhibition ([1]; inhibitor concentration 1 mM): 0%
- Inhibition by Metal Salt [2]: 34%
- Inhibition of the enzyme derived from Pseudomonas [2]: inhibited

Compound: I[I-]I.[K+] [Potassium iodoiodide]
- Percent Inhibition ([1]; inhibitor concentration 1 mM): 4.5%

Compound: O=C1CCC(=O)O1 [Succinic anhydride]
- Percent Inhibition ([1]; inhibitor concentration 5 mM): 8.4%

Compound: OCCS [β-Mercaptoethanol]
- Percent Inhibition ([1]; inhibitor concentration 10 mM): 31.7%

Compound: Ammonium molybdate
- Percent Inhibition ([1]; inhibitor concentration 1 mM): 0%

Compound: Amylopectin
- Substrate specificity [3]: acts
- Initial Velocity [3]: 34.7%
- V [3]: 2.18 × 10^-1 μmol/min/U

Compound: Glycogen
- Substrate specificity [3]: actively acts
- Initial Velocity [3]: 100%
- V [3]: 6.28 × 10^-1 μmol/min/U

Compound: Pullulan
- Substrate specificity [3]: does not act; also recorded: hardly acts
- Initial Velocity [3]: 1.3%
- V [3]: 8.45 × 10^-3 μmol/min/U
